US20170196888A1, “COMPOSITIONS AND METHODS FOR TREATING CANCER” (Yeda Research and Development Co. Ltd., priority 2014, published 2017)

Key:
glucocorticoid receptor = molecular target: T1, glucocorticoid receptor (Homo sapiens, UniProt P04150); conditions: cited from earlier work
T1 sequence (P04150 1-777): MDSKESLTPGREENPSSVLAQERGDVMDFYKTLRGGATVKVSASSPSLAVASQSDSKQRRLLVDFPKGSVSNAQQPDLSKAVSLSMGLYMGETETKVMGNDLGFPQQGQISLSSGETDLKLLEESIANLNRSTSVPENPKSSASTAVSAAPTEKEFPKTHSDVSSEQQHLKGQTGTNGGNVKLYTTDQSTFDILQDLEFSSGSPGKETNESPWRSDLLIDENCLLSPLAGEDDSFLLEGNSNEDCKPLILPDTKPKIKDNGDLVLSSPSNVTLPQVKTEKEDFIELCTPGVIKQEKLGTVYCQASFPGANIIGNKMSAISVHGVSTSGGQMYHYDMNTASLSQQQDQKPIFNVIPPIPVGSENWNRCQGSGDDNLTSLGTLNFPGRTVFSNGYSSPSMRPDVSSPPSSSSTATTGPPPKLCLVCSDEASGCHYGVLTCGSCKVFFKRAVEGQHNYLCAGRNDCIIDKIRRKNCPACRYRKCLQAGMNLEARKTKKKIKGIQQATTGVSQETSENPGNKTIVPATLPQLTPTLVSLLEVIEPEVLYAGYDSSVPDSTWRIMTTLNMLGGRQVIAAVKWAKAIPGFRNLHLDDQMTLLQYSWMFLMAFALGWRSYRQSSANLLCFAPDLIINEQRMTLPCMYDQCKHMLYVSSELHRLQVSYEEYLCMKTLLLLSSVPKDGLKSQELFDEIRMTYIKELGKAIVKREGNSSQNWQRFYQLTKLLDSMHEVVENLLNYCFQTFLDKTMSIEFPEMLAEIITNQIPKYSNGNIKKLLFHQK

MCF10A cells [1] = assay: Transwell migration assay of EGF-stimulated MCF10A cells; assay type: cell-based, human; conditions: for inhibition of EGF-induced cell migration: MCF10A in transwell, EGF 10 ng/ml, DEX 100 nM, E2 30 nM, PRG 30 nM, MPA 100 nM, 20 hours
Experimental: MCF10A cells were grown as described^16 and stimulated with EGF (10 ng/ml) or DEX (100 nM). siRNA transfections employed Oligofectamine (Invitrogen) and ON-Target SMART (Dharmacon, Lafayette, Colo.) oligonucleotides. Lapatinib (di-p-Toluenesulfonate Salt) was purchased from LC Laboratories. Anti GR antibody for immunostaining (sc-1004, SANTA CRUZ BIOTECHNOLOGY, INC.)
Cells (5×10^4 cell/insert) were plated in the upper compartment of a 24-well transwell tray (Corning, Acton, MA), and their migration was assayed^16. Cell invasion assays were performed using BioCoat Matrigel Invasion Chambers (BD Bioscience, Franklin Lakes, N.J.). For tracking, cells were seeded (3×10^3 cells/cm^2) on collagen-coated micro-slide (from Ibidi). For collective migration, 8×10^4 cells were seeded in plastic insets (Ibidi), and after overnight incubation, the plastic barriers were removed and time-lapse images were recorded.

EGF-induced genes = assay: Affymetrix Exon Array time course of EGF- and DEX-regulated transcripts; assay type: cell-based, human; conditions: at 20 minutes
Experimental: (§1) RNA was isolated using the PerfectPure kit from 5 Prime (Hamburg, Germany). Affymetrix GeneChip Human Exon 1.0 ST arrays were used and data were deposited in Gene Expression Omnibus (GSE53405). PCR of pre-mRNA or mRNA used forward primers positioned in the second intron or exon, respectively (Table 3 below).
(§2) All reactions were performed using Power SYBR Green PCR Master Mix (Applied Biosystems, Foster City, CA). For high throughput PCR the Fluidigm® BioMark system was employed. The Affymetrix Expression Console was used for analyses of DNA-arrays, as described^51.
Conceivably, the inhibitory effect of GR involves alterations of EGF-induced transcription. Specifically, GR might affect transcript synthesis or modulate EGF-induced RNA splicing in MCF10A cells. To address such models, cells were stimulated with EGF, DEX or the combination, mRNAs were isolated along a time course from 20 minutes to four hours, and the RNA was hybridized to Affymetrix Exon Arrays which is able to resolve small changes in splicing^19. In addition, confirmatory PCR analyses are provided.

[2] = test system: MCF10A derivatives stably expressing ERRFI1-specific shRNAs; assay: Migration assay of ERRFI1-depleted MCF10A derivatives; assay type: cell-based, human; conditions: ERRFI1-depleted cells
Experimental: FIG. 3A—Serum-starved MCF10A cells were treated with EGF or DEX. qPCR analysis was performed using RNA and primers corresponding to pre-mRNAs (dashed lines) or the mature forms (solid lines). FIG. 3B—A scheme depicting negative feedback regulators of EGFR signalling. FIGS. 3C-D—Cells were stimulated as in A and extracts were immunoblotted for ERRFI1, GR and ERK2. Normalized ERRFI1 signals are shown. FIGS. 3E-F—Active ERK signals (pERK) were determined, normalized and presented. FIG. 3G—MCF10A derivatives stably expressing ERRFI1-specific shRNAs were tested for migration following the indicated treatments. The results were analysed as in FIG. 1D. *p<0.05; ***p<0.0001 (one-way Anova). FIG. 3H—Serum-starved MCF10A cells were pre-incubated for 20 minutes with actinomycin D (1 μg/m1), and thereafter stimulated for the indicated time intervals with EGF or DEX. […] FIG. 3I—The pERK signals from FIG. 3H and additional experiments were quantified, normalized to total ERK2 levels and presented.
Cells (5×10^4 cell/insert) were plated in the upper compartment of a 24-well transwell tray (Corning, Acton, MA), and their migration was assayed^16. […] For collective migration, 8×10^4 cells were seeded in plastic insets (Ibidi), and after overnight incubation, the plastic barriers were removed and time-lapse images were recorded.

MCF10A cells [3] = assay: Annexin V / propidium iodide flow cytometry; assay type: cell-based, human; conditions: MCF10A pre-treated 24 hours with EGF, DEX or the combination
Experimental: FIG. 1J—MCF10A cells pre-treated for 24 hours with of EGF, DEX or the combination. Thereafter, cells were stained for the apoptosis marker annexin V and the necrosis marker propidium iodide (PI), and later assayed using flow cytometry.

[4] = test system: N87 human gastric cancer cells; assay: N87 tumor xenograft study with day or night dosing; assay type: in vivo, mice
Experimental: All animal experiments were approved by the institutional committee. C57BL/6 (CD45.2, Harlan) and knockout animals were maintained under defined flora conditions and at 12 hour light-dark cycles. For daily clock studies, female mice (10-12 week old) were divided into 2 groups; one was maintained in the day-night room, and the second group was located in a special room (with inverted day-light cycles). Mice were let acclimate for at least one week prior to protein and RNA extraction. For tumor xenograft studies, 20 athymic nude (nu/nu) mice were used and maintained in a Specific Pathogen Free environment. Animals (n=10 per group) were inoculated subcutaneously in the left leg (using a sterile 22-gauge needle) with 5×10^6 N87 cells. Mice were randomized into two groups, daily treated with Lapatinib by oral gavage (40 mg/kg) in the night (2 hours after the light off) and in the day (approximately 70 minutes before light on). Treatments were started 2 weeks after cell injection. Tumor width (W) and length (L) were measured once a week with a calliper and tumor volume (V) was calculated according to the formula: V=0.5×W^2×L.

DUSP1 and ERRFI1 = assay: qPCR of negative feedback regulators (pre-mRNA and mRNA); assay type: cell-based, human; conditions: serum-starved MCF10A, EGF 10 ng/ml, DEX 100 nM
Experimental: as §1, §2
Analyses of defects in vulva formation in worms and aberrations in eye development in insects, two processes controlled by EGFR, helped define several evolutionary conserved and partly redundant negative feedback loops able to robustly terminate EGFR signalling^21. Since Module A (EGF^UP/DEX^UP) includes several orthologs of the invertebrate negative feedback loops, three of them were selected for further analysis. DUSP1 is the prototype of MAPK-specific phosphatases, which dephosphorylate the shared Thr-Xxx-Tyr motif of MAPKs. ERRFI1/MIG6 (also called RALT) is a previously identified steroid-inducible adaptor, which physically binds and inhibits the kinase domain of EGFR^5. […] By using primers specific for the nascent or the mature transcripts, de novo transcription of these three negative regulators was followed (FIG. 3A). […]

Compound: CC(=O)O[C@]1(C(C)=O)CC[C@H]2[C@@H]3C[C@H](C)C4=CC(=O)CC[C@]4(C)[C@H]3CC[C@@]21C [MPA, medroxyprogesterone acetate]
- EC50 (glucocorticoid receptor): ~10 nM
- inhibition of EGF-induced cell migration (MCF10A cells [1]): less potent

Compound: CC(=O)[C@H]1CC[C@H]2[C@@H]3CCC4=CC(=O)CC[C@]4(C)[C@H]3CC[C@]12C [PRG, progesterone]
- inhibition of EGF-induced cell migration (MCF10A cells [1]): weak or no activity

Compound: C[C@@H]1C[C@H]2[C@@H]3CCC4=CC(=O)C=C[C@]4(C)[C@@]3(F)[C@@H](O)C[C@]2(C)[C@@]1(O)C(=O)CO [DEX, dexamethasone]
- inhibitory effect on EGF-induced genes, share of maximal capacity (EGF-induced genes): 70%
- inhibition of EGF-induced migration [2]: 30%
- cellular toxicity, markers of apoptosis (annexin V) and necrosis (propidium iodide) (MCF10A cells [3]): excluded the possibility of cellular toxicity
- inhibition of EGF-induced migration (MCF10A cells [1]; control cells): 90%

Compound: CS(=O)(=O)CCNCc1ccc(-c2ccc3ncnc(Nc4ccc(OCc5cccc(F)c5)c(Cl)c4)c3c2)o1 [Lapatinib]
- therapeutic impact on tumor size and weight by time of administration ([4]; 40 mg/kg/day oral gavage, just before the resting phase (ZT23) versus beginning of the active phase): statistically significant enhancement
- tumor angiogenesis (appearance of tumors) ([4]; administration during the resting phase): inhibited tumor angiogenesis

Compound: EGF: epidermal growth factor, EGFR ligand used to stimulate MCF10A cells
- induction of DUSP1 and ERRFI1 transcripts (DUSP1 and ERRFI1): 3-5 fold
